Key:
mouse = experiment: LD50 (mouse), acute toxicity; type: in vivo
rat = experiment: Turning rat test (unilateral 6-OHDA lesion of the medial forebrain bundle); type: in vivo
Protocol: Female rats weighing 150 g are anaesthetised with pentobarbital (50 mg kg^-1 i.p.) and fixed in a stereotaxic apparatus (David Kopf). A unilateral (right side) injection into the MFB (medial forebrain bundle) or 6-OHDA (6-hydroxy-dopamine), 3 μg as base, dissolved in 4 μl of Ringer solution containing 0.02% ascorbic acid, is carried out through a stainless-steel cannula (diameter 0.3 mm) connected to a microsyringe. The liquid is injected at a speed of 1 μl min^-1 by means of a high precision infusion pump. In order to reach the MFB (medial forebrain bundle), the following conditions are used: A=+3.8 mm, L (right)=0.9 mm, V=-3 mm according to the Atlas of Konig and Klippel.
After 3 weeks recovery period, the operated rats are injected with apomorphine, 1 mg kg^1- i.p.. Those animals showing a regular contralateral (i.e., away from the lesioned side) turning, recorded automatically during 1 hour in a rotometer, are selected for further experiments. At least one week is allowed between each injection of screening compounds. […]
The total number of ipsilateral or contralateral turns (full rotation around the vertical axes of the body) made by each rat, is automatically recorded over the time (usually 1 hour). 5 rats are injected for each dose and the mean of total turns per hour is determined.
A compound is said active, if it produces more than 100 turns/hour. […] The results are expressed as: […]

[1] = vs d-amphetamine and d-methamphetamine (Table I)

SMILES: CCn1cc(C(=O)O)c(=O)cc1-c1ccc2ccccc2c1 [1-ethyl-1,4-dihydro-6-(2-naphthyl)-4-oxonicotinic acid]
- LD50 compared with d-amphetamine and d-methamphetamine (mouse; [1]): substantially lower LD50
- LD50 compared with nomifensin (mouse; vs nomifensin): about the same LD50
- strength of action compared with d-amphetamine and d-methamphetamine (rat; [1]): about the same strength of action
- activity compared with nomifensin (rat; vs nomifensin): substantially superior to nomifensin
